One series has as its system K562 cells. Description: K562 cell growth inhibition. It counts as cell-based, human. The note with it: 72 hours. Summed up:
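Human erythroleukemia K562 cells exposed to compound for 72 hours. Cell number measured with CCK-8 and viability expressed relative to the DMSO control.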

Series [1] has as its system MDA-MB-231. Put plainly: MDA-MB-231 cell growth inhibition. It counts as cell-based, human. The note with it: Homo sapiens, MDA-MB-231, 72 h; 3 days, CCK-8, vs DMSO; read-out: IC50, MDA-MB-231 (Breast). As to the method: (§1) In FIG. 9-24 in vitro IC50 values for the GGTase I activity are reported. In Tables 7-15 in cell GI50 values for the growth inhibition of a variety of cancer cell lines (e.g., Jurkat, K562, MDA-MB-231, BT474, MCF7, MiaPaCa2, Aspc-1, Panc-1, Capan-2, CFpac-1, and MCF10a) are reported.
(§2) Cell viability was determined by Cell Counting Kit-8 (CCK-8, Dojindo, Kumamoto, Japan) as described previously (31). Cell viability was calculated relative to the DMSO control. Cell cycle profile was analyzed by flow cytometry as described previously (32).

In the next series the test system is BT474. Description: BT474 cell growth inhibition. It counts as cell-based, human. The note with it: Homo sapiens, BT-474, 72 h; 3 days, CCK-8, vs DMSO; read-out: IC50, BT474 (Breast). As to the method: as §1, §2
A further series deals with MiaPaCa2. Description: MiaPaCa2 cell growth inhibition. It counts as cell-based, human. The note with it: Homo sapiens, MIA PaCa-2, 72 h; 3 days, CCK-8, vs DMSO; read-out: IC50, MiaPaCa2 (Pancreas). As to the method: as §1, §2
For a further series, the system named is Aspc-1. Put plainly: Aspc-1 cell growth inhibition. In kind it is cell-based, human. The note with it: Homo sapiens, ASPC1, 144 h; 6 days, CCK-8, vs DMSO; read-out: IC50, AsPc-1 (Pancreas). How it is done: as §1, §2
A further series concerns Panc-1. Description: Panc-1 cell growth inhibition. In kind it is cell-based, human. The note with it: Homo sapiens, PANC-1, 72 h; 3 days, CCK-8, vs DMSO; read-out: IC50, PANC-1 (Pancreas). How it is done:
as §1
Panc-1 cells (Pancreatic cancer cell line) and Jurkat cells (T-cell leukemia) were treated with 12.5 μM of P5-H6 or 12.5 μM of mP5-H6a for 72 hours. The cell number was counted as described in Example 5.
as §2

In a further series the test system is Capan-2. Put plainly: Capan-2 cell growth inhibition. It counts as cell-based, human. The note with it: Homo sapiens, Capan-2, 72 h; 3 days, CCK-8, vs DMSO; read-out: IC50, Capan-2 (Pancreas). As to the method: as §1, §2
In the next series the test system is HPAC. Put plainly: HPAC cell growth inhibition. The note with it: Homo sapiens, 72 h, 3 days, CCK-8, vs DMSO, read-out: IC50, HPAC (Pancreas). It counts as cell-based. How it is done:
as §2

The test system of a further series is Jurkat. Description: Cell cycle distribution by flow cytometry, Jurkat. It counts as cell-based, human. The note with it: 10 μM, 48 hours. How it is done:
as §2
(A flow cytometer gives signals particle by particle.)

Series [2] deals with MDA-MB-231. Put plainly: Cell cycle distribution by flow cytometry, MDA-MB-231. The note with it: 10 μM, 48 hours. In kind it is cell-based, human. How it is done: as §2
Series [3] relates to Rap1 geranylgeranylation in NIH3T3 cells. Put plainly: Unprenylated Rap1 immunoblot in NIH3T3 cells. The note with it: 48 hours. It counts as cell-based. How it is done: The inhibition of GGTase-I catalyzed protein geranylgeranylation was assessed by examining the accumulation of unprenylated Rap1. To measure the level of unprenylated Rap1, cells were cultured in DMEM plus 10% (v/v) FBS overnight, and then DMSO or appropriate inhibitors were added. Incubation was continued for 48 hours. The cells were harvested and lysed in lysis buffer (20 mM Tris-HCl, pH 7.5, 150 mM NaCl, 1 mM EDTA, 1% NP-40 and 1× Protease Inhibitor Cocktail). Whole cell lysates of NIH3T3 cells were electrophoresed on a 12% SDS-PAGE, transferred to nitrocellulose membranes and immunoblotted with the antibody against unprenylated form of Rap1 (Santa Cruz Biotechnology catalog number sc-1482, goat), total-Rap1 (Santa Cruz: sc-65) or actin (Sigma: A4700). Actin was used as a loading control.
(In western blotting, separated proteins are transferred to a membrane and probed.)

Series [4] has as its system Rab5b geranylgeranylation in NIH3T3 cells. Description: Rab5b immunoblot and subcellular fractionation in NIH3T3 cells. In kind it is cell-based. The note with it: 48 hours. As to the method: The inhibition of Rab geranylgeranylation in cells (FIG. 43) was examined according to (29). Briefly, whole cell lysates were subjected to 15% SDS-PAGE containing 4M urea followed by immunoblotting with the antibody against Rab5b (Santa Cruz: sc-598) or actin. Subcellular fractionations (FIG. 44) were performed as described by Gomes et al. (30). Briefly, cells were treated with P49-F6 for 48 hours. After osmotic lysis, cell debris were removed by centrifugation at 500×g for 10 min, and the supernatant was subjected to ultracentrifugation at 100,000×g for 60 min. The supernatant of ultracentrifugation was collected as a soluble fraction. The pellet was collected as a membrane fraction. These fractions were subjected to electrophoresis on 10% SDS-PAGE gels followed by immunoblotting with the antibody against Rab5b. RhoGDI (Santa Cruz: sc-360) and Na^+/K^+ ATPase (Sigma: A276) were used as markers for soluble and membrane fractions, respectively.

Series [5] in a line: Pharmacokinetics (serum levels) after IP dosing. The note with it: 1.16 mg/kg. It counts as in vivo, mice. The source says:
This may be due to slow metabolism of the compound. […] Thus, in some embodiments, the compositions of the invention can be administered is a dosage regimen that is highly convenient, e.g., once weekly instead of daily. The compositions of the present invention can be administered every 1, 2, 3, 4, 5, 6, or 7 days, or may be administered otherwise.

Molecules are shown by their SMILES. Values joined by “and” are separate entries in the source; they are usually repeats but may differ in a detail not shown here. Equal entries are not always repeated. “Also recorded” adds a separate entry of the source.

For the compound `Cc1ccccc1S(=O)(=O)N1[C@@H](c2cccc(Cl)c2)C(C(=O)O)=CC[C@H]1c1ccc(Cl)cc1` [P3-E5], the “inhibition of proliferation of K562 cells” value in the series on K562 cells (FIG. 23) is “inhibit the growth of the K562 cells”.
What is called Cmax is the highest concentration seen after dosing. What is called half-life is how long it takes for the measured level to halve. A low value points to fast loss. Turning to `Cc1ccccc1S(=O)(=O)N1C(c2ccc(Cl)cc2)C(C(=O)NC(Cc2ccccc2)C(N)=O)=CC1C(C)(C)C` (centres unmarked) [P61-A6], the IC50 was 2.2 µM in the series with K562 cells (Homo sapiens, K562, FIG. 36A, read-out: IC50, inhibition of proliferation of K562 cells); 8.7 µM with MDA-MB-231 [1]; 8.5 µM with BT474; 4.7 µM with MiaPaCa2; 11.7 µM in the series with Aspc-1; 5.2 µM with Panc-1. Also, the IC50 with Capan-2 is 11.5 µM; with HPAC, 3.9 µM. In addition, in the series on Jurkat (DMSO 11.80), the “Percent G2/M, Jurkat” value came out at 11.60%. Further, the “Percent G0/G1, Jurkat” value in the series with Jurkat (DMSO 46.92) was found to be 57.87%. Further, the “Percent G2/M, MDA-MB-231” value in the series on MDA-MB-231 [2] (DMSO 7.74) is on record as 5.15%. The “Percent G0/G1, MDA-MB-231” value in the series on MDA-MB-231 [2] (DMSO 73.78) stood at 85.16%. Moreover, the “appearance of the unprenylated (unprocessed) Rap1 band” value in series [3] is listed as “in a dose dependent manner; also recorded: inhibits Rap1 geranylgeranylation”. Also, the “appearance of the unprenylated Rap1 band at 2.5 μM” value in series [3] (2.5 μM) is reported as “observed”. Further, in series [4], the “inhibition of Rab5b geranylgeranylation (slow migrating unmodified Rab5b band)” value is recorded as “did not inhibit geranylgeranylation of Rab5b”. This compound showed a Clearance in series [5] (IP) of 1.04 mL/h. In addition, the Cmax in series [5] (mouse, serum, ip) was 13000 ng/mL and 22.4 µM. This compound showed a half-life in series [5] (mouse, serum, ip) of 16.9 h. In [5] (mouse, serum, ip, read-out: AUC0-4 h), the AUC(0-t) is 22200 ng·h/mL.
